# Measured values published in patent publication US4607046A, “4-(1-imidazolylmethyl)cinnamic acid hydrochloride monohydrate and pharmaceutical compositions” (Kissei Pharmaceutical Co., Ltd., priority 1981, dated 1986).
# Where a name gives a salt, the structure may show the parent alone.
# Assays:
# [1] = Stability under high or low humidity condition; format: physicochemical; details: below about 50° C.
# [2] = Acute toxicity, oral administration to a rat (LD50); details: in vivo
# Procedure: The LD50 value of this compound is in oral administration to a rat is 6000 mg/kg or more.
smiles,measurement,setting,value
O=C(O)C=Cc1ccc(Cn2ccnc2)cc1 [4-(1-imidazolylmethyl)cinnamic acid hydrochloride monohydrate],stability,[1],stable
same,LD50,[2],≥ 6000 mg/kg
